Assay results taken from patent US20040242550A1, “Means and method for hormonal contraception” (priority 2001, published 2004).

Test: conversion factors for progestogens: amount equivalent to a given amount of levonorgestrel
Conditions: for equivalent to 30 μg levonorgestrel / equivalent to 750 μg levonorgestrel: estimated amount of progestogen; for Conversion factor: relative to levonorgestrel, for guidance, estimate
Source text: In order to determine for a specific biogenic estrogen or synthetic estrogen the amounts that are equivalent to a cited amount of ethinyl estradiol or 17beta-estradiol, the method described by Allen and Doisy may suitably be used (Allen A., Doisy E. A., “An ovarian hormone. Preliminary report on its localization, extraction and partial purification, and action in test animals. JAMA (1923), 81, 819-821). Similarly, in order to determine for a given progestogen the amount equivalent to cited amount of levonorgestrel the method originally described by McPhail can be used (Mc Phail M. K. “The assay of progestin” J Physiol (1934), 83, 145-156). A more recent description of this method can be found in an article written by Overbeek G. A., de Visser J. “A new substance with progestational activity”, Acta Endocrinol (1956), 22, 318-329. It is noted that the aforementioned methods will provide useful indications about the anticipated estrogen potency or progestogen potency of a particular hormone. However, to accurately determine the equivalent amounts that are referred to above, it is advisable to additionally conduct in vivo studies in human females.
For guidance the table below provides the conversion factors for a number of progestogens that may suitably be used in the method of the invention. These conversion factors may be used to calculate, for each progestogen mentioned in the table, an estimate of the amount of said progestogen which is equivalent to a given amount of levonorgestrel.

## C#C[C@]1(OC(C)=O)CC[C@H]2[C@@H]3CCC4=CC(=NO)CC[C@@H]4[C@H]3CC[C@@]21CC (mixture of isomers) [norgestimate]
  equivalent to 30 μg levonorgestrel: 51 µg
  equivalent to 750 μg levonorgestrel: 1.275 mg
  Conversion factor: 1.7

## C[C@]12CCC(=O)C=C1[C@@H]1C[C@@H]1[C@H]1[C@@H]3[C@@H]4C[C@@H]4[C@@]4(CCC(=O)O4)[C@@]3(C)CC[C@@H]12 [drospirenone]
  equivalent to 30 μg levonorgestrel: 600 µg
  equivalent to 750 μg levonorgestrel: 15 mg
  Conversion factor: 20

## CC(=O)[C@H]1CC[C@H]2[C@@H]3C=CC4=CC(=O)CC[C@@]4(C)[C@@H]3CC[C@]12C [dydrogesterone]
  equivalent to 30 μg levonorgestrel: 4000 µg
  equivalent to 750 μg levonorgestrel: 100 mg
  Conversion factor: 133

## C#C[C@]1(O)CC[C@H]2[C@@H]3CCC4=CC(=O)CC[C@@H]4[C@H]3CC[C@@]21C [norethisterone]
  equivalent to 30 μg levonorgestrel: 210 µg
  equivalent to 750 μg levonorgestrel: 5.25 mg
  Conversion factor: 7
